“And” between values parts separate entries of the source, which are not always exact repeats. Equal values may be shown once.
Experiments:
TGF-beta 1 = test: Dermal TGFb1 levels (ELISA) after linear incisional wounds in minipigs; format: in vivo, Gottingen Minipigs; details: approximately 16 mg intradermally once per incisional wound, biopsies days 4, 7, 9 post-dosing
From the text: The purpose of this study was to evaluate the topical effects of axitinib, nintedanib, sorafenib and lenvatinib when administered via intradermal injection to the dorsal skin along linear incisions of minipigs. Linear incisional wound was made to elicit inflammatory and wound healing process in the skin. After dosing, mammals were observed post dose for 9 days to assess the levels of TGFb1 expressions in the skin.
Three male Gottingen Minipigs® dosed once via intradermal injection along the edges of each of the linear incision wound sites for each mammal (wounds on the dorsum, perpendicular to the spine, approximately 3 cm in length and 3 cm distance from the spine). Each incisional wound received approximately 16 mg of the test compound intradermally once along both sides of the linear wound.
On days of 4, 7, and 9 post-dosing, one 4 mm dermal punch biopsy was collected for each incisional wound and processed for TGF-beta 1 analysis with ELISA, using a commercial kit (e.g., the kit from Thermo Fisher or other vendors).

TGF beta1 mRNA = TGF beta1 mRNA expression (qRT-PCR) in rabbit ear hypertrophic scar model; format: in vivo, New Zealand white rabbits; details: 1% w/w, 100 μl intradermal on days 15 and 29, harvest Day 43
Protocol: The objective of this study was to examine the effect of test compounds on wound healing and TGF beta expression after dermal injury in a rabbit ear hypertrophic scar model.
In New Zealand white rabbits, maintained under a surgical plane of anesthesia, trauma stimulation of the skin on the ventral surface of both ears is initiated on Day 1. Trauma sites are evaluated on Days 8, 15, 22, 29, 36, and 43. On days 15 and 29, each site is dosed with test compounds (e.g., 1% w/w, 100 μl) by intradermal or intralesional injections.
Mammals are euthanized on Day 43, and the trauma sites are harvested and frozen for TGF beta analysis using quantitative RT-PCR (qRT-PCR) (e.g., A. K. Johnson et al., Dev. Comp. Immunol., 2006; 30(5): 473-84). TGF beta1 mRNA expression levels in treated trauma samples are compared to the expression level in the untreated trauma sample.

[1] = tested on: suture-induced ocular fibrosis; test: Rabbit corneal suture-induced ocular fibrosis model; format: in vivo, rabbits; details: 0.3% w/v eyedrops 35 uL three times daily for 10 days
From the text: In order to investigate the anti-fibrotic effect of test compounds following wounding in the eye, a suture-induced ocular fibrosis model was used. Suture was placed intrastromally under a microscope in the cornea of rabbits. In each eye, one 9.0 silk suture was placed, in a vertical position, temporal to the corneal center and a second suture was placed nasal to the corneal center. Each suture had two stromal incursions approximately 2 mm from the limbus. Test compounds having certain spectrum of multikinase inhibition activities and/or vehicle were topically instilled (35 uL/eye) in the eyes three times daily for 10 days the day following surgery. The treatment groups include vehicle, nintedanib (0.3%, w/v), pirfenidone (1%, w/v), riociguat (0.3%, w/v), sorafenib (0.3%, w/v) and lenvatinib (0.3%, w/v). Six left eyes were used per treatment group.
The animals were sacrificed on Day 11 and the eyes enucleated and dissected for histopathological evaluation.

subconjunctival scarring = test: Bleb survival after glaucoma filtration surgery in rabbit eyes; format: in vivo, rabbits
Protocol: In order to investigate the anti-scarring effect of topically applied test compounds following ocular surgeries, glaucoma filtration surgery was performed on rabbit eyes. Postoperative subconjunctival wound healing is a major cause of late bleb failure after glaucoma filtration surgery in humans. Select multikinase inhibitors were tested for effect on bleb survival over time. Inhibition of subconjunctival fibrosis following surgery will improve bleb survival. Vehicle was used as a negative control and pirfenidone was used a positive control.
A scleral tract was created in the left eyes superiorally by tunneling a beveled 22-gauge intravenous cannula through the sclera, beginning behind the limbus and continuing until the cannula is visible in the anterior chamber. The cannula was flushed with sodium heparin (1000 units) prior to placement. The cannula needle was withdrawn and the cannula advanced beyond the pupillary margin to prevent iris blockage of the tube. The cannula was trimmed approximately 2 mm and secured to the sclera using suture. Both the Tenon's and the conjunctiva were sutured with 9-0 Prolene. Six rabbits were used per group and the left eye of each rabbit underwent glaucoma filtration surgery. The treatment groups include vehicle control, pirfenidone (1%, w/v) as a positive control, sorafenib (0.3%, w/v), and lenvatinib (0.3%, w/v). Eyedrops (35 uL) were topically applied to the eyes following surgery three times day for 30 days. All animals were sacrificed on Day 30.
Bleb was monitored throughout the study. Bleb volumes were measured with the use of calibrated calipers. […] There were differences noted between groups at Day 7, and the majority of blebs were gone by Day 14 through Day 30 indicating bleb failure due to subconjunctival scarring. Results of the vehicle and pirfenidone groups were similar to those reported in the literature (Zhong H et al., Invest Ophthalmol Vis Sci, 52: 3136-3142, 2011).

[2] = tested on: full-thickness excision wounds; test: Histology of full-thickness excision wounds in Yucatan minipigs (fibroplasia, neovascularization); format: in vivo; details: for Neovascularization; dermis, average score / Fibroplasia; dermis, average score: Yucatan minipig wound sites after two doses, Day 59, scale 1 (minimal) to 5 (severe); for Neovascularization; dermis, average score: untreated 2.33; for Fibroplasia; dermis, average score: untreated 3.33
From the text: (§1) In this experiment, multiple full-thickness excision wounds were made to the dorsum of Yucatan minipigs, and the wound sites were allowed to be re-epithelialized adequately. At four weeks post-wound, the wound sites had normal to pink vascularity and had pliability. Epidermal hyperplasia was observed, as expected for regenerative responses in the full-thickness wounds.
(§2) On Day 28 post-wound, a dose (e.g., 1%) of axitinib, nintedanib, riociguat, sorafenib, sunitinib, and/or lenvatinib was administered into the dermal tissue at or around the wound sites, once every two weeks on two occasions. One wound site was left untreated as the control for each pig. Please note that the particular parameters in this example are only for illustration. One skilled in the art would appreciate that the dosages, administration methods, treatment regimen, and the administration sites may be varied to achieve similar results.
On Day 59 post wound, the minipigs were sacrificed and dermal tissues were collected for qualitative and quantitative evaluation using hematoxylin and eosin, and Mason's Trichrome staining. Dermal fibroplasia was characterized by increased numbers of fibroblasts in the dermis suspended in variable amounts of collagen in wounds.

TGF-β1 mRNA = TGF-β1 mRNA expression (qRT-PCR) in Yucatan pig skin wound sites; format: in vivo, Yucatan minipigs; details: Yucatan pig skin wound sites after treatments; for TGF-β1 mRNA Expression Fold Relative to Untreated Unwounded Control: individual animals 7369, 7370, 7371, duplicate sets 1 and 2, beta actin reference gene
From the text: as §1, §2
In addition, total mRNA was isolated from skin biopsies of the treated wound sites and the untreated unwounded sites of the pigs. The mRNA samples were used to prepare cDNA and analyzed via qRT-PCR. The TGF-β1 expression levels were assessed using beta actin as a reference gene.

Row | Structure (SMILES) | suppression of dermal TGF beta 1 expression over time (TGF-beta 1) | mean folds of TGF beta mRNA expression versus untreated wound sample (TGF beta1 mRNA) | alpha SMA (smooth muscle actin) staining by immunohistochemistry [1] | areas of neovascularization on the corneal surface [1] | fibroplasia and/or collagen density by histological staining [1] | bleb survival on Day 7 (subconjunctival scarring; eyedrops 35 uL three times a day, pirfenidone 1% w/v, lenvatinib 0.3% w/v, compared to vehicle and sorafenib groups) | Neovascularization; dermis, average score [2] | Fibroplasia; dermis, average score [2] | TGF-β1 mRNA Expression Fold Relative to Untreated Unwounded Control (TGF-β1 mRNA) | neovascularization and dermal fibroplasia relative to the untreated wound ([2]; Yucatan minipig, two biweekly treatments) | reduction of TGF-β1 mRNA expression levels at treated wounds (TGF-β1 mRNA) | bleb failure on Day 14 (subconjunctival scarring; 0.3% w/v eyedrops three times a day, 6 eyes per group)
1 | COc1cc2nccc(Oc3ccc(NC(=O)NC4CC4)c(Cl)c3)c2cc1C(N)=O [lenvatinib] | very effective in suppressing the expression of TGF beta 1 | lower than the expression level in the untreated wound sample | significantly reduced alpha SMA (smooth muscle actin) staining | efficacious in reducing the areas of neovascularization | significantly reduced fibroplasia and/or collagen density | kept bleb survival on Day 7 | (2.33) | (3.00) | 2.27 fold and 0.62 fold and 0.89 fold and 0.38 fold and 0.69 fold and 2.02 fold | – | – | –
2 | COC(=O)c1ccc2c(c1)NC(=O)/C2=C(\Nc1ccc(N(C)C(=O)CN2CCN(C)CC2)cc1)c1ccccc1 [nintedanib] | very effective in suppressing the expression of TGF beta 1 | lower than the expression level in the untreated wound sample | significantly reduced alpha SMA (smooth muscle actin) staining | efficacious in reducing the areas of neovascularization | significantly reduced fibroplasia and/or collagen density | – | (1.67) | (2.33) | 0.70 fold and 0.66 fold and 0.55 fold and 0.56 fold and 0.63 fold and 0.87 fold | noticeably reduced neovascularization with a corresponding reduced dermal fibroplasia | most effective | –
3 | CNC(=O)c1cc(Oc2ccc(NC(=O)Nc3ccc(Cl)c(C(F)(F)F)c3)cc2)ccn1 [sorafenib] | not as effective | lower than the expression level in the untreated wound sample | – | inhibition of corneal neovascularization | – | – | (2.33) | (3.00) | 0.84 fold and 0.60 fold and 0.53 fold and 0.43 fold and 0.55 fold and 0.89 fold | – | most effective | all of the sorafenib treated eyes demonstrated bleb failure

Source: patent US12502391B2, “Multi-kinase inhibitors of VEGF and TGF beta and uses thereof” (AIVIVA BIOPHARMA, INC., priority 2018, dated 2025)
